The record followed here is PubChem BioAssay (NCI).

Values joined by “and” are separate entries in the source; they are usually repeats but may differ in a detail not shown here. Equal entries are not always repeated.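 How tested: cells in 96-well plates exposed to compound for 48 hours at five concentrations. The concentration for 50% growth inhibition is given as GI50. TGI denotes the concentration required for complete inhibition of growth.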

Test in all cases: growth of human tumour cells (NCI), 48 h
Test [1] relates to HOP-92 NSCLC.
Test [2] has as its system LOX IMVI melanoma.
Test [3] concerns MOLT-4 leukemia.
The subject of test [4] is NCI-H226 lung.
In test [5] the test system is NCI-H522 lung.
Test [6] relates to SK-MEL-2 melanoma.
Test [7] relates to SK-MEL-28 melanoma.
Test [8] deals with SK-OV-3 ovarian.
In test [9] the test system is HL-60(TB) leukemia.
Test [10] relates to CCRF-CEM leukemia.

For the compound `CN(C)CCNC(=O)c1cccc2cc3c(Cl)cccc3nc12`, the TGI is 4.28 µM in [1]; 2.33 µM in [2]; 0.556 µM in [3]; 2.73 µM in test [4]; > 100 µM in test [5]; 3.5 µM in test [6]. For the same compound, the values for the TGI in test [7] and in test [8] were 5.4 µM and 10.8 µM, respectively.
With `O=C([CH-]C(=O)c1ccccc1)c1ccccc1.[CH-]1CCCCC1.[CH-]1CCCCC1.[CH-]1CCCCC1.[Sn+4]`, the GI50 was 2.28 µM in test [9]; 4.61 µM in [2]; 2.41 µM in [3]; 5.73 µM in test [4]; 2.03 µM in [5]; 3.39 µM in [6]. Moreover, the GI50 in test [8] is 43.5 µM. The TGI in test [9] amounted to 6.59 µM; in test [2], 18.9 µM; in test [3], 7.47 µM; in test [4] it was 39.3 µM; in test [5], 5.26 µM; in test [6], 11.9 µM. The compound further came in with a TGI in test [8] of 68.6 µM.
As to `CC(C)(C)C1CCC2c3c([nH]c4ccccc34)C3C(=O)N(c4ccc(Cl)cc4)C(=O)C3C2C1` (configuration not stated), the TGI in [10] is 47.3 µM and > 10 µM; in test [9] it was 38.8 µM and > 10 µM; in test [2], 0.0487 µM; in [3], 50.6 µM and > 10 µM; in test [4] it was > 100 µM; in [5] it was > 100 µM. For the same compound, the values for the TGI in test [6], in test [7] and in test [8] were > 10 µM, > 100 µM and > 100 µM, respectively. Also, the GI50 is 23.6 µM and > 10 µM in test [3]; 72.8 µM and > 10 µM in test [4]; 60.8 µM and > 10 µM in [5]; > 100 µM in test [7]; > 100 µM in test [8].
On to `CCOP(=O)(OCC)C1CCCOC1=O` (configuration not stated), for which the TGI in [10], in test [9], in [2], in test [3], in test [6] and in test [7] was > 100 µM in each case. Also, the TGI in [8] was > 100 µM.
Take `COc1cc(/C=N/Nc2ncnc3c2cnn3-c2ccccc2)ccc1O`: the GI50 is 4.54 µM in [10]; 11.7 µM in test [9]; 10.3 µM in test [2]; > 25 µM in test [3]; > 25 µM in test [4]; 2.27 µM in test [5]. The GI50 in [6] is 5.85 µM; in [7] it was 18.5 µM; in [8] it was 9.88 µM. The TGI in test [10] was > 25 µM; in [9] it was > 25 µM; in [2] it was > 25 µM; in test [3], > 25 µM; in [4] it was > 25 µM; in [5] it was > 17.3 µM. The figures for the TGI in [6], in test [7] and in test [8] were 20.6 µM, > 25 µM and > 25 µM, respectively.
In the case of `O=[N+]([O-])C=C(c1ccc(Cl)cc1)c1ccc(Cl)cc1`, the TGI in test [10] came out at 67.7 µM; in [9], 44 µM; in [2] it was 25.5 µM; in [3], 56.9 µM; in [4], 30.7 µM; in test [5], 28.8 µM. In addition, the TGI in [6] was determined as 57 µM; in test [7] it was 31 µM.
Consider `CCC(C)Nc1ccc(N)cc1` (configuration not stated), for which the GI50 in [10] was 3.33 µM; in [9] it was 1.48 µM; in test [2], 3.43 µM; in test [3], 4.29 µM; in [4] it was 4.39 µM; in test [5] it was 3.07 µM. Also, the figures for the GI50 in test [6], in test [7] and in test [8] were 3.21 µM, 6.37 µM and 4.98 µM, respectively. Further, the TGI in test [10] was found to be 17.9 µM; in test [9], 5.05 µM; in [2] it was 11 µM; in test [3], 12.4 µM; in test [4], 19 µM; in test [5], 9.07 µM. For the same compound, the TGI in [6] is 8.61 µM; in [7], 18.9 µM; in [8], 93.3 µM.
For the compound `CC(C)(C)c1ccc(Oc2ccc(N)cn2)cc1`, the GI50 in [10] is 1.06 µM; in test [9] it was 0.545 µM; in [2], 60.1 µM; in [3], 3.96 µM; in [4] it was 44.5 µM; in [5], 9.46 µM. Further, the GI50 in [6] was > 100 µM; in test [7], 75.9 µM; in test [8] it was > 100 µM. Further, the TGI in test [10] was > 100 µM; in test [9], 17.4 µM; in [2], > 100 µM; in [3], > 100 µM; in test [4], > 100 µM; in test [5], > 100 µM. The TGI in [6], in test [7] and in test [8] was > 100 µM in each case.
With `O=C(O)[C@H](NS(=O)(=O)c1ccc(F)cc1)c1ccccc1`, the TGI in [10], in [2], in test [3], in [4], in test [5] and in test [6] was > 100 µM in each case. In addition, the TGI in test [7] and in test [8] was > 100 µM in each case.
Take `C=C/C=C/[C@@H](O)CC(=C)C[C@H]1OC2[C@H](C)[C@@H](OC(=O)C[C@H]3C[C@H](OC(C)=O)C[C@@]4(C[C@@](C)(O)C[C@H](CC(=C)[C@@H](C)[C@H](OC(C)=O)[C@H](C)C(=O)C[C@@H]5C[C@H](OC)CC6(C[C@@H](O)C[C@H](/C=C\CCC[C@H]7O[C@](O)(C=C[C@H]7C)[C@H]2O)O6)O5)O4)O3)[C@@H]1O`: the GI50 in test [10] was 0.0025 µM; in test [1], 0.0227 µM and 0.0025 µM; in test [4], 0.000503 µM and 0.0025 µM; in test [5] it was 0.000825 µM and < 0.0025 µM; in [6] it was 0.0025 µM; in test [8] it was 0.000465 µM and 0.0025 µM. Besides, the TGI in test [10] is > 25 µM; in [1], 15.1 µM; in [5] it was < 0.0025 µM; in test [6], 0.00308 µM; in test [7], > 25 µM.
With `CCCCCCCCCCCCCC[N+](C)(C)CCCCCCCCCCCCCC`, the GI50 in test [9] was 2.07 µM; in test [3], 2.41 µM; in test [5], 1.93 µM; in test [8], 3.6 µM. In addition, the TGI in test [9] amounted to 4.89 µM; in test [3] it was 6.44 µM; in test [5], 5.17 µM; in test [8] it was 19.7 µM.
